Source: patent US20240109917A1 (ACTELION PHARMACEUTICALS LTD, priority 2020, published 2024)

Legend:
[1] = molecular target: His6-TEV-PDGFRβ (557-1016) (Homo sapiens (Human), UniProt P09619); test: PDGFRβ HTRF Assay; assay type: biochemical; conditions: read-out: PDGFR HTRF IC50
Outline: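 HTRF KinEASE-TK readout (665/620 nm ratio) of TK-biotin substrate phosphorylation by His-tagged PDGFRβ kinase domain. Enzyme and inhibitor preincubated 30 min, then ATP/substrate added for 3 h at room temperature before 60 min EDTA quench/detection.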

[2] = molecular target: Tb-labeled inactive PDGFRβ (Homo sapiens (Human), UniProt P09619); test: PDGFRβ LanthaScreen Assay; assay type: binding; conditions: read-out: PDGFR Lantha IC50
Chain of Tb-labeled inactive PDGFRβ (P09619 33-1106): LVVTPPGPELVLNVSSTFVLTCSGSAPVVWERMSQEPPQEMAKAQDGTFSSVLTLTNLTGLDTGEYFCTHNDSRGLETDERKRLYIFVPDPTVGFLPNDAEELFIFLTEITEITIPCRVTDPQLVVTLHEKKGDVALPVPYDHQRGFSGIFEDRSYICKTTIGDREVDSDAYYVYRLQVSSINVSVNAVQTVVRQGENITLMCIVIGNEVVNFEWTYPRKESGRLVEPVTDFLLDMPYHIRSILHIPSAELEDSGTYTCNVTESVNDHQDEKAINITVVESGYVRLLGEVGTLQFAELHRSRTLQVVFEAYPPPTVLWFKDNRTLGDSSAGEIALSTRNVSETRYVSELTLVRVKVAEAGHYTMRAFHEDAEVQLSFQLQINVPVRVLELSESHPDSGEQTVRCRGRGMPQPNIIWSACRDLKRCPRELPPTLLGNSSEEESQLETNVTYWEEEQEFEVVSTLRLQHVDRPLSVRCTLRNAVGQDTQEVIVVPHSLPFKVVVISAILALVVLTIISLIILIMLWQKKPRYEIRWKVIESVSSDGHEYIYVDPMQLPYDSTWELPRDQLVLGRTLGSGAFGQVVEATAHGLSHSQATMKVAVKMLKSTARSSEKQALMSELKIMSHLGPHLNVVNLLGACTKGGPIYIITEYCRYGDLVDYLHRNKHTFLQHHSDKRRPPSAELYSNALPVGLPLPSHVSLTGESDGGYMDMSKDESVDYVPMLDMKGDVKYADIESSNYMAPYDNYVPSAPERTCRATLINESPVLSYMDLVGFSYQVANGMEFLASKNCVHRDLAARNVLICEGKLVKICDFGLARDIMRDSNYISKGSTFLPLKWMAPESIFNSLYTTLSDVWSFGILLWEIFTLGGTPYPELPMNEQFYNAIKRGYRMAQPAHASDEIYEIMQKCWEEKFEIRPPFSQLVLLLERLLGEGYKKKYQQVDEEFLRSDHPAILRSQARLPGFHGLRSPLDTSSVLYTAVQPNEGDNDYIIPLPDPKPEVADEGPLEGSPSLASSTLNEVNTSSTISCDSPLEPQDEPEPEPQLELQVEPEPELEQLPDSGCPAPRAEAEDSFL

VEGFR2, unphosphorylated = VEGFR2, unphosphorylated (Homo sapiens (Human), UniProt P35968); test: VEGFR ADP GLO Assay; assay type: biochemical
Chain of VEGFR2, unphosphorylated (P35968 20-1356): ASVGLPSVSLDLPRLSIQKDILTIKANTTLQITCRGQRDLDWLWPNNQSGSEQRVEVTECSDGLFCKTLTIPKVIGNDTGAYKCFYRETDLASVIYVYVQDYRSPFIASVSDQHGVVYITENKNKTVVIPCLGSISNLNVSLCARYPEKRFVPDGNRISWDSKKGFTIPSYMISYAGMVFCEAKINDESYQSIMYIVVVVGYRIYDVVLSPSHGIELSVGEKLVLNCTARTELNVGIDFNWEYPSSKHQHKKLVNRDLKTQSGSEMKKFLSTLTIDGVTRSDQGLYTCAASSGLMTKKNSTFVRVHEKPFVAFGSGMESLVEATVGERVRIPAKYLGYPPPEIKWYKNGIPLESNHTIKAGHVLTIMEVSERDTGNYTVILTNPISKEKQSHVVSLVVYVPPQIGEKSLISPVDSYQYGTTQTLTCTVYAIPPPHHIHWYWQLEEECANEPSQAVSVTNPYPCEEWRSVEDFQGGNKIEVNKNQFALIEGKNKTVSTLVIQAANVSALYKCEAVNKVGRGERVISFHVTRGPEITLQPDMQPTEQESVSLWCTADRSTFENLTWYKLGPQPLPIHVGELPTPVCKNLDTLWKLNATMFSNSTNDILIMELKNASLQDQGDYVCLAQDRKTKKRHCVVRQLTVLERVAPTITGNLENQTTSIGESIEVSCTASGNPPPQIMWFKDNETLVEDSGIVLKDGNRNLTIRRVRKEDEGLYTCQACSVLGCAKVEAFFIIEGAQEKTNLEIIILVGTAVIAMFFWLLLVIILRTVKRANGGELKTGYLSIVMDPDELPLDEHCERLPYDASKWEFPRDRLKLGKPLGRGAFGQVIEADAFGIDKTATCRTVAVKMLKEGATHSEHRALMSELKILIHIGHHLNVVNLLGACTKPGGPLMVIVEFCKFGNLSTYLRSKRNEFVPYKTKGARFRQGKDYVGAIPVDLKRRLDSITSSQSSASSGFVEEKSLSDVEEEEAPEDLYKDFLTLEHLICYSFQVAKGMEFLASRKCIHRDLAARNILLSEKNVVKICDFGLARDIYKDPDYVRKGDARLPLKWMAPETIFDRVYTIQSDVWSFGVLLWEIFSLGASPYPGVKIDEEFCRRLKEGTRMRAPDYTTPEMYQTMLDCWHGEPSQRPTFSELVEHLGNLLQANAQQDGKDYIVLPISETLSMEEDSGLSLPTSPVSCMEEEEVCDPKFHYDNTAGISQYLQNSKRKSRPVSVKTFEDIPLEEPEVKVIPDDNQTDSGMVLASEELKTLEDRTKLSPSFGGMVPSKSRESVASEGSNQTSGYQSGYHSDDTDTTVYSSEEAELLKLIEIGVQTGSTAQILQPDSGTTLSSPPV

Chain of His6-TEV-PDGFRβ (557-1016) (P09619 557-1016): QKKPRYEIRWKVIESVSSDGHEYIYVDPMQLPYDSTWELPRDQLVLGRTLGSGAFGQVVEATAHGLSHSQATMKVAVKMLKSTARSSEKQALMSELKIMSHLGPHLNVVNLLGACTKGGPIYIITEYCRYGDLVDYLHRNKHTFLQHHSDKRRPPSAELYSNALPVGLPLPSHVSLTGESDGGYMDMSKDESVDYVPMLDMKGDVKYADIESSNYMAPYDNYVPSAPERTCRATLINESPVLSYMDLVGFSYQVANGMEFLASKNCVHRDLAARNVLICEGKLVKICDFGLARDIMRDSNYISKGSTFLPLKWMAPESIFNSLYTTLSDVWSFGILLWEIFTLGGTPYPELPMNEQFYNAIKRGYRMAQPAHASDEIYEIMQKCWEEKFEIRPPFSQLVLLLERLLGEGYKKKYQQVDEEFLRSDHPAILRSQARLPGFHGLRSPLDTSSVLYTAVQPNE

Structure (SMILES) | IC50 [1] | IC50 [2] | IC50 (VEGFR2, unphosphorylated)
Cc1ncc(NC(=O)CN2CCS(=O)(=O)CC2)cc1NC(=O)c1cnn2cc(-c3cnn(C)c3)sc12 [Example 59, N-(5-(2-(1,1-dioxidothiomorpholino)acetamido)-2-methylpyridin-3-yl)-2-(1-methyl-1H-pyrazol-4-yl)pyrazolo[5,1-b]thiazole-7-carboxamide] | 2.1 nM | 93.9 nM | > 7500 nM
Cc1ncc(NC(=O)CN2CCCOCC2)cc1NC(=O)c1cnn2cc(-c3cnn(C)c3)sc12 [Example 80, N-(5-(2-(1,4-oxazepan-4-yl)acetamido)-2-methylpyridin-3-yl)-2-(1-methyl-1H-pyrazol-4-yl)pyrazolo[5,1-b]thiazole-7-carboxamide] | 1.4 nM | 19.3 nM | > 7500 nM
Cc1ncc(C(=O)NCCN2CCCC23CCC3)cc1NC(=O)c1cnn2cc(-c3cnn(C)c3)sc12 [Example 3, N-(5-((2-(5-azaspiro[3.4]octan-5-yl)ethyl)carbamoyl)-2-methylpyridin-3-yl)-2-(1-methyl-1H-pyrazol-4-yl)pyrazolo[5,1-b]thiazole-7-carboxamide] | 0.6 nM | 4 nM | 6980 nM
Cc1ncc(NC(=O)CN2[C@H](C)COC[C@H]2C)cc1NC(=O)c1cnn2cc(-c3cnn(C)c3)sc12 [Example 51, N-(5-(2-((3R,5R)-3,5-dimethylmorpholino)acetamido)-2-methylpyridin-3-yl)-2-(1-methyl-1H-pyrazol-4-yl)pyrazolo[5,1-b]thiazole-7-carboxamide] | 0.4 nM | 4.8 nM | > 7500 nM
Cc1ncc(NC(=O)CNC2(C)CCC2)cc1NC(=O)c1cnn2cc(-c3cnn4c3OCCC4)sc12 [Example 495, 2-(6,7-dihydro-5H-pyrazolo[5,1-b][1,3]oxazin-3-yl)-N-(2-methyl-5-(2-((1-methylcyclobutyl)amino)acetamido)pyridin-3-yl)pyrazolo[5,1-b]thiazole-7-carboxamide] | 0.3 nM | 2.5 nM | > 7500 nM
Cc1ncc(NC(=O)CN2CCCCC23CC3)cc1NC(=O)c1cnn2cc(-c3cnn(CCO)c3)sc12 [Example 86, N-(5-(2-(4-azaspiro[2.5]octan-4-yl)acetamido)-2-methylpyridin-3-yl)-2-(1-(2-hydroxyethyl)-1H-pyrazol-4-yl)pyrazolo[5,1-b]thiazole-7-carboxamide] | 1.3 nM | 7.3 nM | > 7500 nM
Cc1ncc(NC(=O)CCN2CC3CCC2CC3)cc1NC(=O)c1cnn2cc(-c3cnn(C)c3)sc12 [Example 43, N-(5-(3-(2-azabicyclo[2.2.2]octan-2-yl)propanamido)-2-methylpyridin-3-yl)-2-(1-methyl-1H-pyrazol-4-yl)pyrazolo[5,1-b]thiazole-7-carboxamide] | 0.23 nM | 3.9 nM | > 7500 nM
Cc1ncc(NC(=O)CN2C[C@@H](C)O[C@@H](C)C2)cc1NC(=O)c1cnn2cc(-c3cnn(C)c3)sc12 [Example 53, N-(5-(2-((2R,6S)-2,6-dimethylmorpholino)acetamido)-2-methylpyridin-3-yl)-2-(1-methyl-1H-pyrazol-4-yl)pyrazolo[5,1-b]thiazole-7-carboxamide] | 0.3 nM | 2.7 nM | > 7500 nM
Cc1ncc(C(=O)NCCN2CCCC2(C)C)cc1NC(=O)c1cnn2cc(-c3ccnc(N4CCOCC4)c3)sc12 [Example 483, N-(5-((2-(2,2-dimethylpyrrolidin-1-yl)ethyl)carbamoyl)-2-methylpyridin-3-yl)-2-(2-morpholinopyridin-4-yl)pyrazolo[5,1-b]thiazole-7-carboxamide] | 0.3 nM | 2.1 nM | > 7500 nM
Cc1ncc(NC(=O)CCN2CCCC2(C)C)cc1NC(=O)c1cnn2cc(-c3cnn(C)c3)sc12 [Example 42, N-(5-(3-(2,2-dimethylpyrrolidin-1-yl)propanamido)-2-methyl-pyridin-3-yl)-2-(1-methyl-1H-pyrazol-4-yl)pyrazolo[5,1-b]thiazole-7-carboxamide] | 0.28 nM | 3.8 nM | > 7500 nM
Cc1ncc(NC(=O)CN2CCc3cnccc3C2)cc1NC(=O)c1cnn2cc(-c3cnn(C)c3)sc12 [Example 62, N-(5-(2-(3,4-dihydro-2,6-naphthyridin-2 (1H)-yl)acetamido)-2-methylpyridin-3-yl)-2-(1-methyl-1H-pyrazol-4-yl)pyrazolo[5,1-b]thiazole-7-carboxamide] | 1.4 nM | 17.6 nM | > 7500 nM
Cc1ncc(NC(=O)CN2CCOCC23CCC3)cc1NC(=O)c1cnn2cc(-c3cnn(C)c3)sc12 [Example 78, N-(5-(2-(8-oxa-5-azaspiro[3.5]nonan-5-yl)acetamido)-2-methylpyridin-3-yl)-2-(1-methyl-1H-pyrazol-4-yl)pyrazolo[5,1-b]thiazole-7-carboxamide] | 0.9 nM | 5.7 nM | > 7500 nM
Cc1ncc(C(=O)NCCN2CCCC23CC3)cc1NC(=O)c1cnn2cc(-c3cnn(C)c3)sc12 [Example 2, N-(5-((2-(4-azaspiro[2.4]heptan-4-yl)ethyl)carbamoyl)-2-methylpyridin-3-yl)-2-(1-methyl-1H-pyrazol-4-yl)pyrazolo[5,1-b]thiazole-7-carboxamide] | 0.7 nM | 11.5 nM | > 7500 nM
Cc1ncc(NC(=O)CN2CCN(C)C(=O)C2)cc1NC(=O)c1cnn2cc(-c3cnn(C)c3)sc12 [Example 72, 2-(1-methyl-1H-pyrazol-4-yl)-N-(2-methyl-5-(2-(4-methyl-3-oxopiperazin-1-yl)acetamido)pyridin-3-yl)pyrazolo[5,1-b]thiazole-7-carboxamide] | 5.7 nM | 112 nM | > 7500 nM
COCCn1cc(-c2cn3ncc(C(=O)Nc4cc(NC(=O)CCN5CCC6(CC6)C5)cnc4C)c3s2)cn1 [Example 91, N-(5-(3-(5-azaspiro[2.4]heptan-5-yl)propanamido)-2-methylpyridin-3-yl)-2-(1-(2-methoxyethyl)-1H-pyrazol-4-yl)pyrazolo[5,1-b]thiazole-7-carboxamide] | 0.5 nM | 13.2 nM | > 7500 nM
Cc1ncc(NC(=O)CN2CCOCC2)cc1NC(=O)c1cnn2cc(-c3cnn(C)c3)sc12 [Example 55, 2-(1-methyl-1H-pyrazol-4-yl)-N-(2-methyl-5-(2-morpholinoacetamido)pyridin-3-yl)pyrazolo[5,1-b]thiazole-7-carboxamide] | 1.5 nM | 40.6 nM | > 7500 nM
Cc1ncc(NC(=O)CN2[C@H](C)COC[C@@H]2C)cc1NC(=O)c1cnn2cc(-c3cnn(C)c3)sc12 [Example 71, N-(5-(2-((3S,5R)-3,5-dimethylmorpholino)acetamido)-2-methylpyridin-3-yl)-2-(1-methyl-1H-pyrazol-4-yl)pyrazolo[5,1-b]thiazole-7-carboxamide] | 2.9 nM | 47.9 nM | > 7500 nM
Cc1ncc(NC(=O)CN2Cc3cccnc3C2)cc1NC(=O)c1cnn2cc(-c3cnn(C)c3)sc12 [Example 48, N-(5-(2-(5H-pyrrolo[3,4-b]pyridin-6 (7H)-yl)acetamido)-2-methylpyridin-3-yl)-2-(1-methyl-1H-pyrazol-4-yl)pyrazolo[5,1-b]thiazole-7-carboxamide] | 1.4 nM | 16.8 nM | > 7500 nM
Cc1ncc(NC(=O)CN2CCO[C@@H](C)C2)cc1NC(=O)c1cnn2cc(-c3cnn(C)c3)sc12 [Example 64, (S)-2-(1-methyl-1H-pyrazol-4-yl)-N-(2-methyl-5-(2-(2-methylmorpholino)acetamido)pyridin-3-yl)pyrazolo[5,1-b]thiazole-7-carboxamide] | 0.4 nM | 6.3 nM | > 7500 nM
Cc1ncc(NC(=O)CNCC(C)C)cc1NC(=O)c1cnn2cc(-c3cnn4c3CCC4)sc12 [Example 493, 2-(5,6-dihydro-4H-pyrrolo[1,2-b]pyrazol-3-yl)-N-(5-(2-(isobutylamino)acetamido)-2-methylpyridin-3-yl)pyrazolo[5,1-b]thiazole-7-carboxamide] | 0.2 nM | 1.9 nM | > 7500 nM
CC[C@@H]1COCCN1CC(=O)Nc1cnc(C)c(NC(=O)c2cnn3cc(-c4cnn(C)c4)sc23)c1 [Example 69, (R)—N-(5-(2-(3-ethylmorpholino)acetamido)-2-methylpyridin-3-yl)-2-(1-methyl-1H-pyrazol-4-yl)pyrazolo[5,1-b]thiazole-7-carboxamide] | 0.5 nM | 4.7 nM | > 7500 nM
COCCn1cc(-c2cn3ncc(C(=O)Nc4cc(NC(=O)CCN5CCC(C)(C)C5)cnc4C)c3s2)cn1 [Example 89, N-(5-(3-(3,3-dimethylpyrrolidin-1-yl)propanamido)-2-methylpyridin-3-yl)-2-(1-(2-methoxyethyl)-1H-pyrazol-4-yl)pyrazolo[5,1-b]thiazole-7-carboxamide] | 0.6 nM | 12.7 nM | > 7500 nM
Cc1ncc(NC(=O)CN2Cc3ncsc3C2)cc1NC(=O)c1cnn2cc(-c3cnn(C)c3)sc12 [Example 76, N-(5-(2-(4H-pyrrolo[3,4-d]thiazol-5 (6H)-yl)acetamido)-2-methylpyridin-3-yl)-2-(1-methyl-1H-pyrazol-4-yl)pyrazolo[5,1-b]thiazole-7-carboxamide] | 0.9 nM | 8.9 nM | > 7500 nM
CC[C@H]1COCCN1CC(=O)Nc1cnc(C)c(NC(=O)c2cnn3cc(-c4cnn(C)c4)sc23)c1 [Example 70, (S)—N-(5-(2-(3-ethylmorpholino)acetamido)-2-methylpyridin-3-yl)-2-(1-methyl-1H-pyrazol-4-yl)pyrazolo[5,1-b]thiazole-7-carboxamide] | 0.2 nM | 2.9 nM | > 7500 nM
